Data on two compounds can be found in US20100009395A1, “LUMINESCENCE ASSAY UTILIZING A GENETICALLY MODIFIED CELL LINE” (priority 2006, published 2010).

Entries after “also recorded” stand apart in the source; their conditions may differ.

Type in all cases: cell-based
The subject of assay [1] is I-kappa B-luciferase (IkB-Luc) fusion protein. Nature of the assay: IkB-Luc degradation luciferase (luminescence imaging) assay in stably transfected HCT-116 cells. To be noted: human urine sample two hours after ingestion of 8 g curcumin. The procedure: This construct has been transfected into HeLa and HCT-116 cells.
The substrate for luciferase, D-luciferin was also added to the cells at the same time, and the cells were incubated in extremely light-tight, low-background imaging chamber, at 37° C. Photon luminescence emitted from the cells is detected with a back-thinned CCD camera, designed for high-efficiency photon detection, particularly in the important red region of the spectrum.
The imaging assay cells were plated in a 24 well dish and allowed to grow for 24 hours; they were then treated with 10 ng/ml TNF-alpha, the substrate for luciferase, D-luciferin was also added at the same time, the cells were then incubated in a light-tight, low background imaging chamber, at 37° C.
Photon luminescence emitted from the cells was detected with a back-thinned CCD camera, designed for high-efficiency photon detection. The CCD is cooled and the electronic readout is optimized so that the data gathered extremely low noise.
HCT-116 cells stably expressing I-kB-Luc were incubated for 2 hours with increasing concentrations (0-1000 μl) control or post-curcumin ingested urine. Subsequently, some of the cells were treated with TNF-alpha. The level of I-kB degradation was determined by the luciferase assay. […] Similar experiments were conducted with black raspberry extracts.

For the next assay, the system named is COX-2 gene expression. Nature of the assay: COX-2 expression in HCT-116 cells after induction with TNF-alpha, EGF or IL-1. To be noted: 1 hour pre-incubation, then TNF-alpha, EGF or IL-1 for 1 hour. The procedure: Endogenous levels of COX-2 were determined following addition of the three botanical extracts. After incubating the HCT-116 cells with the different fractions for 1 hour, the cells were treated with TNF-alpha, EGF or IL-1 […] (all known inducers of COX-2 expression) for an additional 1 hour to induce high levels of COX-2 expression.

The test system of assay [2] is native I-kappa B and I-kappa B-luciferase (IkB-Luc). In words: Western blot of total cell lysates from TNF-alpha-treated HCT-116 cells. To be noted: incubation with TNF-alpha. The procedure:
In this experiment the degradation of I-kappa B was investigated. The I-kappa B was stably expressed as a fusion protein with the firefly luciferase in HCT-116 colon cancer cells. Presence of I-kappa B can then be monitored by luminescence activity. It was determined that the fusion protein is subject to similar levels of degradation in response to a stimulus such as tumor necrosis factor-alpha (TNF-alpha), a known inducer of phosphorylation and degradation of I-kappa B, as would be the case with the native of I-kappa B. Western blot analyses of total cell lysates from TNF-alpha-treated cells were subjected to western blot analyses. Both, native I-kappa B and I-kappa B-luciferase (IkB-Luc) levels were decreased within 20 minutes of incubation with TNF-alpha.
A general note: In western blotting, separated proteins are transferred to a membrane and probed.

As for `COc1cc(/C=C/C(=O)CC(=O)/C=C/c2ccc(O)c(OC)c2)ccc1O` [curcumin], the “protection of IkB-Luc from TNF-alpha-mediated degradation” value in assay [1] is “significant increase in the protection of the IkB-Luc from TNF-alpha-mediated degradation; also recorded: reduced the TNF degradation of I kappa B-Luc”; in assay [1] (listed as cucurmin) it was “significantly inhibited the IkB-Luc degradation”. Further, in the assay on COX-2 gene expression, the COX-2 gene expression entry is listed as “inhibitor of COX-2 gene expression”.

On to TNF-alpha, for which the “time to decrease of native I-kappa B and IkB-Luc levels” value in assay [2] is no more than 20 min.
